The results in this text go back to US20150259344A1, “IMIDAZOLE DERIVATIVE” (DAINIPPON SUMITOMO PHARMA CO., LTD., priority 2012, published 2015).

Molecules are shown by their SMILES.

The first assay deals with T1, human α7 nAChR (Homo sapiens, UniProt P36544).
T1 construct: expressed in transfected cells
T1 sequence (P36544 23-502): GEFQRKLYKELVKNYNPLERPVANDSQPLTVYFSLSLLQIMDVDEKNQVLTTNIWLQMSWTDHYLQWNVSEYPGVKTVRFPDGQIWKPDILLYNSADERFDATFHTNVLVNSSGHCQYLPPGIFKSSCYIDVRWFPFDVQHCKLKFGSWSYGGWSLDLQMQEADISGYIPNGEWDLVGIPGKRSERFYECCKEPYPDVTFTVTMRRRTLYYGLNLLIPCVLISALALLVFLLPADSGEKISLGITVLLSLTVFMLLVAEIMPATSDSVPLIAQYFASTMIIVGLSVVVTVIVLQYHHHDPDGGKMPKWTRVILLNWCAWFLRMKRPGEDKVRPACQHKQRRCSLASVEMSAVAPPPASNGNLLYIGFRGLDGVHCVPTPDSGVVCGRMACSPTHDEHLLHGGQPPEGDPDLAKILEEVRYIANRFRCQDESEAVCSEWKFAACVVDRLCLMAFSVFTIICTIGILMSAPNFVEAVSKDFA
Kind of assay: Evaluation of PAM activity with human α7 nACh receptor stably expressing cells (aequorin luminescence, FDSS7000). It is filed as cell-based. Conditions: 1 μM test compound (values marked *, footnote of Table 25); ACh at EC20; ratio of RLU (Max-Min) to control wells; read-out: α7PAM (%) @1 μM. The protocol: Evaluation of PAM activity with human α7 nACh receptor stably expressing cells
(1) Human α7 nAChR stably expressing cells
Human α7 nAChR stably expressing cells were generated and cultured.
Thus, the cells were subcultured.
Seven days after subculturing, the cells were treated with TrypLE Express to collect them when they were about 80% confluent.
On the next day after seeding, Viviren (cat#E649X, Promega, Madison, Wis., USA) was added to the medium so that the final concentration could be 4 μM (15 μL/well). The plates were centrifuged and then placed in the dark for 4 hours at room temperature.
(2) Preparation of the Test Samples
Each of the test compounds was dissolved in DMSO to prepare each test sample at a concentration of 1000-fold the final concentration. To the solution was added Hanks/20 mM HEPES/0.2% BSA (cat#A3803, Sigma, St. Louis, Mo., USA), and the concentration was adjusted to 6-fold the final concentration.
(3) Evaluation of PAM Activity
FDSS7000 (Hamamatsu Photonics) was used to detect the luminescence signal evoked by α7 nAChR stimulation. The cells and a luminescent substrate were put on a plate, and the test sample was added thereto. […] The ratio of the RLU (Max-Min) of the test-compound-containing wells to that of the control wells was defined as PAM activity.
In the case of `O=C(NC1CCC1)N1CCC(n2cnc(-c3ccccc3)c2Cl)CC1` [Example 79], the activity at 1 µM amounted to 112%.
Still for that read-out and setting: the figure for `CC(C)(C)C(=O)N[C@H]1CC[C@@H](n2cnc(-c3ccc(C(F)(F)F)cc3)c2)CC1` [Example 161] is 233%; for `O=C(N[C@H]1CC[C@@H](n2cnc(-c3ccc(C(F)(F)F)cc3)c2)CC1)C1CCC(F)(F)CC1` [Example 162] it is 323%.

The assay is the same for the next values; noted with them: 10 μM test compound; ACh at EC20; ratio of RLU (Max-Min) to control wells.
In the case of `O=C(NC1CCCCC1)N1CCC(n2cnc(-c3cccs3)c2)CC1` [Example 129], the “α7PAM (%) @10 μM” value is 330%.

The assay is the same for the next values; noted with them: 10 μM test compound; ACh at EC20; ratio of RLU (Max-Min) to control wells; read-out: α7PAM (%) @10 μM.
On to `O=C(NC1CCCC1)N1CCC(n2cnc(-c3cccc(F)c3)c2Cl)CC1` [Example 83], for which the activity at 10 µM came out at 671%.
`O=C(NC1CCCCC1)N1CCC(n2cnc(-c3cccc(F)c3)c2Cl)CC1` [Example 84]: the activity at 10 µM is 747%.
For the molecule `CC(C)(C)NC(=O)N1CCC(n2cnc(-c3ccccc3F)c2Cl)CC1` [Example 92], the activity at 10 µM came to 758%.
In the case of `O=C(NC1CCOCC1)N1CCC(n2cnc(-c3cccc(C(F)(F)F)c3)c2Cl)CC1` [Example 94, 4-{5-chloro-4-[3-(trifluoromethyl)phenyl]-1H-imidazol-1-yl}-N-(tetrahydro-2H-pyran-4-yl)piperidine-1-carboxamide], the activity at 10 µM came to 981%.
On the same count and under the same terms, the result for `CC(C)(C)NC(=O)N1CCC(n2cnc(-c3ccccc3)c2C#N)CC1` [Example 100] reads 708%.
As for `Cc1c(-c2ccccc2)ncn1C1CCN(C(=O)NC2CCCCC2)CC1` [Example 102], the activity at 10 µM turned out to be 641%.
Same read-out and setting: the figure for `CCc1c(-c2ccccc2)ncn1C1CCN(C(=O)NC2CCCCC2)CC1` [Example 103] is 452%; for `O=C(NC1CCCCC1)N1CCC(n2cnc(-c3ccccc3)c2C2CC2)CC1` [Example 108] it is 576%; for `CC(C)(C)NC(=O)N1CCC(n2cnc(-c3ccccc3)c2C2CC2)CC1` [Example 109] it is 457%.
In the case of `O=C(NC1CCCCC1)N1CCC(n2cnc(-c3ccccc3)c2CO)CC1` [Example 110], the activity at 10 µM was 201%.
On the same count and under the same terms, the figure for `CC(C)(C)NC(=O)N1CCC(n2cnc(-c3ccccc3)c2CO)CC1` [Example 111] is 153%; for `O=C(NC1CCC(F)(F)CC1)N1CCC(n2cnc(-c3ccccc3)c2C2CC2)CC1` [Example 113] it is 882%.
As to `Cc1nc(-c2ccccc2)cn1C1CCN(C(=O)NC2CCCCC2)CC1` [Example 114], the activity at 10 µM was 133%.
Still for that read-out and setting: the result for `O=C(NC1CCCCC1)N1CCC(n2cc(-c3ccccc3)nc2Cl)CC1` [Example 116] reads 131%; that for `O=C(NC1CCCCC1)N1CCC(n2cnc(-c3ccc(Cl)s3)c2)CC1` [Example 117], 853%; that for `O=C(NC1CCC(F)(F)CC1)N1CCC(n2cnc(-c3ccnc(Cl)c3)c2)CC1` [Example 120], 208%.
Still for that read-out and setting: the result for `O=C(NC1CCCC1)N1CCC(n2cnc(-c3cccs3)c2)CC1` [Example 121] reads 201%; that for `Cc1ccc(-c2cn(C3CCN(C(=O)NC4CCCC4)CC3)cn2)s1` [Example 122], 459%.
For `O=C(NC1CCCCC1)N1CCC(n2cnc(-c3cccs3)c2)CC1` [Example 123], the activity at 10 µM came to 345%.
Same read-out and setting: the figure for `Cc1ccc(-c2cn(C3CCN(C(=O)NC4CCCCC4)CC3)cn2)s1` [Example 124] is 572%.
Same read-out and setting: the figure for `O=C(NC1CCC(F)(F)CC1)N1CCC(n2cnc(-c3cccs3)c2)CC1` [Example 125] is 466%; for `Cc1ccc(-c2cn(C3CCN(C(=O)NC4CCC(F)(F)CC4)CC3)cn2)s1` [Example 126] it is 780%; for `COC1CCC(NC(=O)N2CCC(n3cnc(-c4cccs4)c3)CC2)CC1` (stereo not shown) [Example 127] it is 170%.
For the molecule `COC1CCC(NC(=O)N2CCC(n3cnc(-c4ccc(C)s4)c3)CC2)CC1` (stereo not shown) [Example 128], the activity at 10 µM stood at 188%.
Same read-out and setting: the figure for `O=C(NC1CCCCC1)N1CCC(n2cnc(-c3ccc(C(F)(F)F)cn3)c2)CC1` [Example 131] is 738%.
Same read-out and setting: the figure for `O=C(NC1CCCCC1)N1CCC(n2cnc(-c3ccccn3)c2)CC1` [Example 132] is 151%.
Same read-out and setting: the figure for `O=C(NC1CCCCC1)N1CCC(n2cnc(-c3cccnc3)c2)CC1` [Example 133] is 101%; for `O=C(NC1CCCCC1)N1CCC(n2cnc(-c3ccccn3)c2Cl)CC1` [Example 134] it is 171%; for `O=C(NC1CCCCC1)N1CCC(n2cnc(-c3ccncc3)c2Cl)CC1` [Example 135] it is 154%.
For the molecule `O=C(NC1CCC(F)(F)CC1)N1CCC(n2cnc(-c3ccncc3)c2Cl)CC1` [Example 136], the activity at 10 µM stood at 309%.
Still for that read-out and setting: the figure for `O=C(NC1CCC(F)(F)CC1)N1CCC(n2cnc(-c3ccccn3)c2Cl)CC1` [Example 137] is 328%; for `O=C(C1CCC(F)(F)CC1)N1CCC(n2cnc(-c3ccc(C(F)(F)F)cc3)c2)CC1` [Example 138] it is 597%.
The same measure, in the same setting: the figure for `O=C(C1CCC(F)(F)CC1)N1CCC(n2cnc(-c3ccc(F)c(F)c3)c2)CC1` [Example 139] is 274%; for `O=C(c1ccc(F)cn1)N1CCC(n2cnc(-c3ccc(F)c(F)c3)c2)CC1` [Example 140] it is 127%.
For the molecule `O=C(c1ccc(F)cn1)N1CCC(n2cnc(-c3ccc(Cl)cc3)c2)CC1` [Example 141], the activity at 10 µM was found to be 253%.
For the molecule `COC1CCC(C(=O)N2CCC(n3cnc(-c4ccccc4)c3)CC2)CC1` (stereo not shown) [Example 142], the activity at 10 µM turned out to be 163%.
In the case of `O=C(C1CCC(F)(F)CC1)N1CCC(n2cnc(-c3cccc(F)c3)c2)CC1` [Example 144], the activity at 10 µM is 346%.
As to `O=C(C1CCC(F)(F)CC1)N1CCC(n2cnc(-c3cccc(OC(F)F)c3)c2)CC1` [Example 145], the activity at 10 µM came to 363%.
The same measure, in the same setting: the result for `O=C(C1CCC(F)(F)CC1)N1CCC(n2cnc(-c3ccc(OC(F)F)cc3)c2)CC1` [Example 146] reads 572%.
The same measure, in the same setting: the figure for `CCOc1ccc(-c2cn(C3CCN(C(=O)C4CCC(F)(F)CC4)CC3)cn2)cc1` [Example 147] is 484%.
Turning to `COc1ccc(-c2ncn(C3CCN(C(=O)C4CCC(F)(F)CC4)CC3)c2Cl)cc1` [Example 148], the activity at 10 µM is 700%.
Still for that read-out and setting: the result for `O=C(C1CCC(F)(F)CC1)N1CCC(n2cnc(-c3ccc(F)cc3)c2Cl)CC1` [Example 149] reads 862%; that for `O=C(C1CCOCC1)N1CCC(n2cnc(-c3cccc(F)c3)c2Cl)CC1` [Example 150], 137%.
Still for that read-out and setting: the result for `O=C(C1CCOCC1)N1CCC(n2cnc(-c3ccc(F)cc3)c2Cl)CC1` [Example 151] reads 155%; that for `O=C(C1CCC(F)(F)CC1)N1CCC(n2cnc(-c3ccccc3)c2Cl)CC1` [Example 152], 945%; that for `N#Cc1c(-c2ccccc2)ncn1C1CCN(C(=O)C2CCCCC2)CC1` [Example 153], 538%.
Same read-out and setting: the figure for `N#Cc1c(-c2ccc(F)cc2)ncn1C1CCN(C(=O)C2CCC(F)(F)CC2)CC1` [Example 154, 1-{1-[(4,4-difluorocyclohexyl)carbonyl]piperidin-4-yl}-4-(4-fluorophenyl)-1H-imidazole-5-carbonitrile] is 644%.
For `N#Cc1c(-c2cccc(F)c2)ncn1C1CCN(C(=O)C2CCC(F)(F)CC2)CC1` [Example 155], the activity at 10 µM came out at 252%.
On the same count and under the same terms, the figure for `N#Cc1c(-c2ccccc2F)ncn1C1CCN(C(=O)C2CCC(F)(F)CC2)CC1` [Example 156, 1-{1-[(4,4-difluorocyclohexyl)carbonyl]piperidin-4-yl}-4-(2-fluorophenyl)-1H-imidazole-5-carbonitrile] is 522%.
Still for that read-out and setting: the result for `N#Cc1c(-c2ccc(C(F)(F)F)cc2)ncn1C1CCN(C(=O)C2CCC(F)(F)CC2)CC1` [Example 157] reads 236%.
Still for that read-out and setting: the result for `N#Cc1c(-c2cccc(C(F)(F)F)c2)ncn1C1CCN(C(=O)C2CCC(F)(F)CC2)CC1` [Example 158] reads 132%; that for `N#Cc1c(-c2ccc(Cl)cc2)ncn1C1CCN(C(=O)C2CCC(F)(F)CC2)CC1` [Example 159], 692%.
Take `N#Cc1c(-c2cccc(Cl)c2)ncn1C1CCN(C(=O)C2CCC(F)(F)CC2)CC1` [Example 160]: the activity at 10 µM is 367%.
Take `CC(C)(C)C(=O)N[C@H]1CC[C@@H](n2cnc(-c3ccccc3)c2Cl)CC1` [Example 167]: the activity at 10 µM is 221%.

The same assay, now with this note: comparison across Tables 18 to 25.
Regarding `O=C(NC1CCOCC1)N1CCC(n2cnc(-c3ccc(C(F)(F)F)cc3)c2Cl)CC1` [Example 93], the “PAM activity for α7 nAChR (in words)” value is reported as “stronger PAM activity than others”.
Regarding `N#Cc1c(-c2ccccc2)ncn1C1CCN(C(=O)NC2CCC(F)(F)CC2)CC1` [Example 99], the “PAM activity for α7 nAChR (in words)” value was “stronger PAM activity than others”.
`O=C(NC1CCC(F)(F)CC1)N1CCC(n2cnc(-c3ccc(Cl)s3)c2)CC1` [Example 118]: the “PAM activity for α7 nAChR (in words)” value is “stronger PAM activity than others”.
